According to patent publication US9469645B2, “Compounds and compositions for the treatment of parasitic diseases” (Novartis AG, priority 2009, dated 2016):

Tests used:
[1] = test system: 3D7 P. falciparum strain; assay: parasite proliferation assay in infected red blood cells (SYBR Green I); format: cell-based, Plasmodium falciparum; conditions: Plasmodium falciparum, 3D7, Erythrocyte, 3D7 strain; read-out: EC50 3D7 strain
Procedure, shortened: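 P. falciparum 3D7 grown in O+ human erythrocytes to 3–8% parasitemia and exposed to compounds. Proliferation read as the increase in parasite DNA. Detection used SYBR Green I in saponin/triton-X/EDTA lysis buffer, with overnight lysis at room temperature.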

[2] = test system: W2 strain; assay: parasite proliferation assay in infected red blood cells (SYBR Green I), W2 strain; format: cell-based, Plasmodium falciparum; conditions: Plasmodium falciparum, Erythrocyte
Description: Compounds of the invention can be assayed to measure their capacity to inhibit proliferation of parasitemia in infected red blood cells. The proliferation is quantified by the addition of SYBR Green I (INVITROGEN)® dye which has a high affinity for double stranded DNA.

Cc1ccc(Nc2c(-c3ccc(F)cc3)nc3n2CCN(C(=O)[C@@H](N)Cc2cscn2)C3)cc1 [Compound 486]
EC50 [1]: 30 nM
EC50 [2]: 16 nM

N[C@H](C(=O)N1CCn2c(nc(-c3ccc(F)cc3)c2Nc2ccc(Cl)c(F)c2)C1)C1CC1 [Compound 487]
EC50 [1]: 40 nM
EC50 [2]: 31 nM

N[C@@H](CC1CC1)C(=O)N1CCn2c(nc(-c3ccc(F)cc3)c2Nc2ccc(Cl)c(F)c2)C1 [Compound 488]
EC50 [1]: 20 nM
EC50 [2]: 13 nM

CC(C)[C@H](O)C(=O)N1CCn2c(nc(-c3ccc(F)cc3)c2Nc2ccc(Cl)c(F)c2)C1 [Compound 489]
EC50 [1]: 10 nM
EC50 [2]: 9 nM

N[C@H](C(=O)N1CCn2c(nc(-c3ccc(F)cc3)c2Nc2ccc(Cl)c(F)c2)C1)c1ccc(F)cc1 [Compound 490]
EC50 [1]: 50 nM
EC50 [2]: 33 nM

CC1(C)NCCn2c1nc(-c1ccc(F)cc1)c2Nc1ccc(F)cc1 [Compound 493]
EC50 [1]: 4 nM
EC50 [2]: 5 nM

Cc1ccc(Nc2c(-c3ccc(F)c(C)c3)nc3n2CCNC3)cc1 [Compound 494]
EC50 [1]: 2820 nM
EC50 [2]: 2140 nM

Cc1cc(Nc2c(-c3ccc(F)cc3)nc3n2CCN(C(=O)CN)C3(C)C)ccc1F [Compound 495]
EC50 [1]: 90 nM
EC50 [2]: 39 nM

Cc1cc(Nc2c(-c3ccc(F)cc3)nc3n2CCN(C(=O)CN)C3(C)C)ccc1Cl [Compound 496]
EC50 [1]: 30 nM
EC50 [2]: 8 nM

Cc1ccc(Nc2c(-c3ccc(F)c(Cl)c3)nc3n2CCNC3)cc1 [Compound 497]
EC50 [1]: 8000 nM
EC50 [2]: 5820 nM

Cc1ccc(Nc2c(-c3ccc(Cl)c(F)c3)nc3n2CCNC3)cc1 [Compound 498]
EC50 [1]: 6340 nM
EC50 [2]: 6740 nM

Cc1cccc(Nc2c(-c3ccc(F)cc3)nc3n2CCN(C(=O)CN)C3(C)C)c1 [Compound 499]
EC50 [1]: 10 nM
EC50 [2]: 6 nM

CC1(C)NC(=O)Cn2c1nc(-c1ccc(F)cc1)c2Nc1cccc(C(F)(F)F)c1 [Compound 500]
EC50 [1]: 1560 nM
EC50 [2]: 1100 nM

CC1(C)NC(=O)Cn2c1nc(-c1ccc(F)cc1)c2Nc1cccc(F)c1 [Compound 501]
EC50 [1]: 400 nM
EC50 [2]: 305 nM

Cc1ccc(Nc2c(-c3ccc(F)cc3)nc3n2CCN(C(=O)[C@@](C)(N)Cc2ccc(F)cc2)C3)cc1 [Compound 502]
EC50 [1]: 1390 nM
EC50 [2]: 1370 nM

Cc1ccc(Nc2c(-c3ccc(F)cc3)nc3n2CCN(C(=O)C(C)(N)CC(C)C)C3)cc1 (stereo not shown) [Compound 503]
EC50 [1]: 120 nM
EC50 [2]: 95 nM

Cc1ccc(Nc2c(-c3ccc(F)cc3)nc3n2CCN(C(=O)[C@@](C)(N)CO)C3)cc1 [Compound 504]
EC50 [1]: 90 nM
EC50 [2]: 93 nM

Cc1ccc(Nc2c(-c3ccc(F)cc3)nc3n2CCN(C(=O)C(C)(N)CO)C3)cc1 (stereo not shown) [Compound 505]
EC50 [1]: 140 nM
EC50 [2]: 116 nM

CC1(C)NC(=O)Cn2c1nc(-c1ccc(F)cc1)c2Nc1ccc(Cl)c(Cl)c1 [Compound 506]
EC50 [1]: 190 nM
EC50 [2]: 198 nM

Cc1ccc(Nc2c(-c3ccc(F)cc3)nc3n2CC(=O)NC3(C)C)cc1 [Compound 507]
EC50 [1]: 140 nM
EC50 [2]: 136 nM

CC1(C)NC(=O)Cn2c1nc(-c1ccc(F)cc1)c2Nc1ccc(Cl)cc1 [Compound 508]
EC50 [1]: 130 nM
EC50 [2]: 126 nM

CC1(C)NC(=O)Cn2c1nc(-c1ccc(F)cc1)c2Nc1ccc(F)c(F)c1 [Compound 509]
EC50 [1]: 130 nM
EC50 [2]: 134 nM

CC1(C)NC(=O)Cn2c1nc(-c1ccc(F)cc1)c2Nc1ccc(Cl)c(F)c1 [Compound 511]
EC50 [1]: 40 nM
EC50 [2]: 65 nM

CC1(C)NC(=O)Cn2c1nc(-c1ccc(F)cc1)c2Nc1ccc(F)cc1 [Compound 512]
EC50 [1]: 190 nM
EC50 [2]: 165 nM

CC1(C)NC(=O)Cn2c1nc(-c1ccc(F)cc1)c2Nc1ccc(F)c(Cl)c1 [Compound 513]
EC50 [1]: 170 nM
EC50 [2]: 195 nM

CC1(C)NCCn2c1nc(-c1ccc(F)cc1)c2Nc1cccc(F)c1 [Compound 514]
EC50 [1]: 30 nM
EC50 [2]: 24 nM

CC1(C)NCCn2c1nc(-c1ccc(F)cc1)c2Nc1cccc(C(F)(F)F)c1 [Compound 515]
EC50 [1]: 40 nM
EC50 [2]: 34 nM

CC1(C)c2nc(-c3ccc(F)cc3)c(Nc3cccc(F)c3)n2CCN1C(=O)C(F)(F)F [Compound 516]
EC50 [1]: 30 nM
EC50 [2]: 26 nM

Cc1ccc(Nc2c(-c3ccc(F)c(C)c3)nc3n2CCN(C(=O)CN)C3)cc1 [Compound 517]
EC50 [1]: 50 nM
EC50 [2]: 51 nM

Cc1ccc(Nc2c(-c3ccc(F)c(C)c3)nc3n2CCN(C(=O)C(C)(C)N)C3)cc1 [Compound 518]
EC50 [1]: 4980 nM
EC50 [2]: 2890 nM

Cc1ccc(Nc2c(-c3ccc(F)c(Cl)c3)nc3n2CCN(C(=O)CN)C3)cc1 [Compound 519]
EC50 [1]: 840 nM
EC50 [2]: 590 nM

Cc1ccc(Nc2c(-c3ccc(Cl)c(F)c3)nc3n2CCN(C(=O)CN)C3)cc1 [Compound 520]
EC50 [1]: 160 nM
EC50 [2]: 158 nM

Cc1ccc(Nc2c(-c3ccc(Cl)c(F)c3)nc3n2CCN(C(=O)C(C)(C)N)C3)cc1 [Compound 521]
EC50 [1]: 5000 nM
EC50 [2]: 3030 nM

CC1(C)c2nc(-c3ccc(F)cc3)c(Nc3ccc(F)c(C#N)c3)n2CCN1C(=O)CN [Compound 522]
EC50 [1]: 1.7 nM
EC50 [2]: 2 nM

CC1(C)NCCn2c1nc(-c1ccc(F)cc1)c2Nc1ccc(F)c(C(=O)O)c1 [Compound 523]
EC50 [1]: 13100 nM
EC50 [2]: 11600 nM

CC1(C)NCCn2c1nc(-c1ccc(F)cc1)c2Nc1ccc(F)c(C#N)c1 [Compound 524]
EC50 [1]: 40 nM
EC50 [2]: 57 nM

Cc1ccc(Nc2c(-c3ccc(F)cc3)nc3n2CCN(C(=O)CN)C3(C)C)cc1C#N [Compound 525]
EC50 [1]: 10 nM
EC50 [2]: 13 nM

Cc1ccc(Nc2c(-c3ccc(F)cc3)nc3n2CCNC3(C)C)cc1C(=O)O [Compound 526]
EC50 [1]: 1120 nM
EC50 [2]: 974 nM

Cc1ccc(Nc2c(-c3ccc(F)cc3)nc3n2CCNC3(C)C)cc1C#N [Compound 527]
EC50 [1]: 4 nM
EC50 [2]: 6 nM

CC1(C)c2nc(-c3ccc(F)cc3)c(Nc3cccc(C(F)(F)F)c3)n2CCN1C(=O)C(F)(F)F [Compound 528]
EC50 [1]: 150 nM
EC50 [2]: 121 nM

Cc1ccc(Nc2c(-c3ccc(F)cc3)nc3n2CCN(C(=O)C(C)(C)N)C3(C)C)cc1 [Compound 529, 2-amino-1-(2-(4-fluorophenyl)-8,8-dimethyl-3-(p-tolylamino)-5,6-dihydroimidazo[1,2-a]pyrazin-7(8H)-yl)-2-methylpropan-1-one]
EC50 [1]: 2 nM
EC50 [2]: 4 nM

CC1(C)c2nc(-c3ccc(F)cc3)c(NC3CCCCC3)n2CCN1C(=O)CN [Compound 531]
EC50 [1]: 40 nM
EC50 [2]: 57 nM

Cc1ccc(Nc2c(-c3ccc(F)cc3)nc3n2CCN(C(=O)CN)C3(C)C)cc1Cl [Compound 532]
EC50 [1]: 20 nM
EC50 [2]: 9 nM

Cc1ccc(Nc2c(-c3ccc(F)cc3)nc3n2CCN(C(=O)CN)C3(C)C)cc1F [Compound 533]
EC50 [1]: 30 nM
EC50 [2]: 22 nM

CC1(C)c2nc(-c3ccc(F)cc3)c(Nc3ccc(C#N)c(Cl)c3)n2CCN1C(=O)CN [Compound 534]
EC50 [1]: 40 nM
EC50 [2]: 19 nM

Cc1ccc(Nc2c(-c3ccc(F)cc3)nc3n2CC(=O)NC3(C)C)cc1C#N [Compound 535]
EC50 [1]: 2720 nM
EC50 [2]: 2350 nM

CN1CC(C)(C)n2c(nc(-c3ccc(F)cc3)c2Nc2ccc(F)cc2)C1(C)C [Compound 536]
EC50 [1]: 6400 nM
EC50 [2]: 5930 nM

CC1(C)NC(=O)Cn2c1nc(-c1ccc(F)cc1)c2Nc1ccc(F)c(C#N)c1 [Compound 537]
EC50 [1]: 11900 nM
EC50 [2]: 8340 nM

Cc1ccc(Nc2c(-c3ccc(F)cc3)nc3n2C(C)(C)C(=O)N(C)C3(C)C)cc1 [Compound 538]
EC50 [1]: 7670 nM
EC50 [2]: 8060 nM

Cc1ccc(Nc2c(-c3ccc(F)cc3)nc3n2C(C)(C)CN(C)C3(C)C)cc1 [Compound 539]
EC50 [1]: 3060 nM
EC50 [2]: 3120 nM

CC(C)(C)OC(=O)NCC(=O)N1CCn2cc(-c3ccc(F)cc3)nc2C1 [Compound 540, tert-butyl 2-(2-(4-fluorophenyl)-5,6-dihydroimidazo[1,2-a]pyrazin-7(8H)-yl)-2-oxoethylcarbamate]
EC50 [1]: 8420 nM
EC50 [2]: 9810 nM

Cc1ccc(Nc2c(-c3ccc(F)cc3)nc3n2CCNC3(C)C)cc1F [Compound 541]
EC50 [1]: 10 nM
EC50 [2]: 10 nM

CC1(C)NC(=O)Cn2c1nc(-c1ccc(F)cc1)c2Nc1cc(F)c(F)c(F)c1 [Compound 543]
EC50 [1]: 170 nM
EC50 [2]: 305 nM

Cc1cc(Nc2c(-c3ccc(F)cc3)nc3n2CC(=O)NC3(C)C)ccc1F [Compound 544]
EC50 [1]: 20 nM
EC50 [2]: 37 nM

COc1ccc(Nc2c(-c3ccc(F)cc3)nc3n2CC(=O)NC3(C)C)cn1 [Compound 545]
EC50 [1]: 3380 nM
EC50 [2]: 5620 nM

Cc1ccc(Nc2c(-c3ccc(F)cc3)nc3n2CC(=O)NC3(C)C)cc1Cl [Compound 546]
EC50 [1]: 30 nM
EC50 [2]: 52 nM

Cc1ccnc(Nc2c(-c3ccc(F)cc3)nc3n2CC(=O)NC3(C)C)c1 [Compound 547]
EC50 [1]: 1820 nM
EC50 [2]: 4660 nM

CC1(C)NC(=O)Cn2c1nc(-c1ccc(F)cc1)c2Nc1ccc(C#N)c(Cl)c1 [Compound 548]
EC50 [1]: 2630 nM
EC50 [2]: 5550 nM

CC(C)[C@H]1NC(=O)Cn2c1nc(-c1ccc(F)cc1)c2Nc1ccc(Cl)cc1 [Compound 549]
EC50 [1]: 1700 nM
EC50 [2]: 3260 nM

CC(C)[C@H]1NC(=O)Cn2c1nc(-c1ccc(F)cc1)c2Nc1ccc(Cl)c(F)c1 [Compound 550]
EC50 [1]: 2560 nM
EC50 [2]: 3600 nM

CC1(C)NC(=O)Cn2c1nc(-c1ccc(F)c(F)c1)c2Nc1ccc(Cl)c(F)c1 [Compound 551]
EC50 [1]: 40 nM
EC50 [2]: 98 nM

CC1(C)c2nc(-c3ccc(F)cc3)c(Nc3cccc(NS(C)(=O)=O)c3)n2CCN1C(=O)CN [Compound 552]
EC50 [1]: 2520 nM
EC50 [2]: 4480 nM
